Assay results taken from ChEMBL document CHEMBL1201862, “PubChem BioAssay data set” (2004).
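Each compound was tested at five concentrations against cells in 96-well plates for 48 hours. Abbreviation: GI50, concentration required for 50% inhibition of growth.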 Calls of active or inactive are those of the source. No stated cut-off is given here; in the data, active = GI50 up to about 1.1 µM and inactive = higher.

What was measured:
Assay in all cases: NCI tumour cell line growth inhibition, 48 h
[1] = tested on: NCI-H522
[2] = tested on: RXF 393
[3] = tested on: RPMI-8226
[4] = tested on: SK-MEL-2
[5] = tested on: ACHN
[6] = tested on: SK-MEL-5
[7] = tested on: NCI-H460
[8] = tested on: NCI-H23
[9] = tested on: LOX IMVI
[10] = tested on: OVCAR-8
[11] = tested on: PC-3
[12] = tested on: EKVX
[13] = tested on: SF-539
[14] = tested on: SN12C
[15] = tested on: K562
[16] = tested on: OVCAR-4
[17] = tested on: U-251
[18] = tested on: SNB-19
[19] = tested on: A549
[20] = tested on: M14

Measured: GI50

CC(C)(C)c1cc(C2NCCO2)cc(C(C)(C)C)c1O (configuration not stated)
inactive: [1] > 100 µM | [2] 14.7 µM | [3] > 100 µM | [4] 35.2 µM | [5] > 100 µM | [6] > 100 µM | [7] > 100 µM | [8] 51.4 µM | [9] > 100 µM | [10] 77.3 µM | [11] 82 µM | [12] 77.3 µM | [13] > 100 µM | [14] 89.7 µM | [15] > 100 µM | [16] > 100 µM | [17] 37.1 µM

S=c1[nH]c(Cl)cc2nc(Cl)cn12
inactive: [1] 1.57 µM | [2] 2.84 µM | [3] 16.1 µM | [4] 3.85 µM | [5] 8.61 µM | [6] 2.95 µM | [7] 13.6 µM | [8] 5.82 µM | [9] 7.85 µM | [10] 4.74 µM | [11] 3.94 µM | [12] 2.25 µM | [13] 2.2 µM | [14] 7.29 µM | [16] 6.14 µM | [17] 4.53 µM | [18] 6.04 µM | [19] 20.2 µM | [20] 4.24 µM

COc1ccc(CCN2CCOCC2)cc1
inactive: [1] > 100 µM | [2] > 100 µM | [3] > 100 µM | [4] > 100 µM | [5] > 100 µM | [6] > 100 µM | [7] > 100 µM | [8] > 100 µM | [9] > 100 µM | [11] > 100 µM | [12] > 100 µM | [13] > 100 µM | [14] > 100 µM | [15] > 100 µM | [17] > 100 µM | [18] > 100 µM | [19] > 100 µM | [20] > 100 µM

CC(C)(CC#N)c1cc(CC(C)(C)c2cc(CC(C)(C)c3cc(C(C)(C)C4(C)OCCO4)no3)no2)no1
inactive: [1] 24.6 µM | [2] 7.89 µM | [3] > 100 µM | [4] 42.7 µM | [5] 35.5 µM | [6] 75.7 µM | [8] > 100 µM | [10] 51.9 µM | [11] 39.7 µM | [12] 33 µM | [14] 25.8 µM | [15] > 100 µM | [16] 23.5 µM | [17] 39.8 µM | [18] 21.8 µM | [19] > 100 µM | [20] > 100 µM

O=c1[nH]c(Cc2ccccc2)nc2c1sc1nc3ccccc3n12
inactive: [1] > 100 µM | [2] > 100 µM | [3] > 100 µM | [4] > 100 µM | [5] > 100 µM | [6] > 100 µM | [7] > 100 µM | [8] > 100 µM | [9] > 100 µM | [10] > 100 µM | [11] > 100 µM | [12] > 100 µM | [13] > 100 µM | [14] > 100 µM | [17] > 100 µM | [18] > 58.3 µM | [19] > 100 µM | [20] > 100 µM

N=NCC(=O)OC(COCc1ccccc1)COCc1ccccc1
inactive: [1] > 100 µM | [2] > 100 µM | [3] > 100 µM | [4] > 100 µM | [5] 25.9 µM | [6] 49.1 µM | [7] 7.1 µM | [8] > 100 µM | [9] 93.5 µM | [11] 70 µM | [12] > 100 µM | [14] 80.5 µM | [15] 47 µM | [16] 69.7 µM | [17] > 100 µM | [18] > 100 µM

CC(C)OP(=O)(OC(C)C)C(C(C)C)N(C)/C(N)=N\C1=NC(C(F)(F)F)(C(F)(F)F)N=C(C(C(F)(F)F)C(F)(F)F)O1 (configuration not stated)
inactive: [1] 1.41 µM | [2] 1.6 µM | [3] 1.97 µM | [4] 9.44 µM | [5] 2.59 µM | [6] 1.56 µM | [7] 2.64 µM | [8] 3.61 µM | [9] 1.79 µM | [10] 1.99 µM | [11] 2.56 µM | [12] 3.66 µM | [13] 3.75 µM | [14] 3.15 µM | [15] 1.76 µM | [17] 3.08 µM | [18] 11.9 µM | [19] 2.88 µM | [20] 1.41 µM

OCC1OC(n2cnc3c2NC=NC[C@H]3O)CC1O (some centres not stated)
inactive: [1] 444 µM | [2] 484 µM | [3] 478 µM | [4] 497 µM | [5] 400 µM | [6] 483 µM | [7] 418 µM | [8] 486 µM | [9] 463 µM | [10] 489 µM | [11] > 500 µM | [12] 489 µM | [14] 483 µM | [15] 469 µM | [16] 470 µM | [17] 480 µM | [18] 479 µM | [20] 418 µM

COc1ccc2nc3cc(Cl)ccc3c(NCCCN(Cc3cc(OC)c(OC)c(OC)c3)Cc3cc(OC)c(OC)c(OC)c3)c2c1
inactive: [1] 9.48 µM | [2] 3.38 µM | [3] 3.07 µM | [4] 25.1 µM | [5] 11.7 µM | [6] 1.29 µM | [7] 6.84 µM | [8] > 10 µM | [10] 12.1 µM | [11] 10.4 µM | [12] 13.5 µM | [13] 2.2 µM | [14] 16.8 µM | [15] 1.19 µM | [17] 4.32 µM | [18] 17.4 µM | [19] 14.6 µM | [20] 1.78 µM

COc1ccc(N)c(C(=O)CCNC(C)=O)c1 [KINURENAMINE]
inactive: [1] > 100 µM | [2] > 100 µM | [3] > 100 µM | [4] > 100 µM | [5] > 100 µM | [6] > 100 µM | [7] > 100 µM | [8] > 100 µM | [9] > 100 µM | [10] > 100 µM | [11] > 100 µM | [12] > 100 µM | [13] > 100 µM | [14] > 100 µM | [16] > 100 µM | [17] > 100 µM | [18] > 100 µM | [19] > 100 µM | [20] > 100 µM

O=C(O)C1C2CCC(C2)C1c1ccccc1 (configuration not stated)
inactive: [1] > 100 µM | [2] > 100 µM | [3] > 100 µM | [4] 55.5 µM | [5] > 100 µM | [6] > 100 µM | [7] > 100 µM | [8] > 100 µM | [9] > 100 µM | [10] > 100 µM | [11] > 100 µM | [12] > 100 µM | [13] > 100 µM | [14] > 100 µM | [15] > 100 µM | [17] > 100 µM | [18] > 100 µM | [19] > 100 µM | [20] > 100 µM

NC(=O)NNc1nc(-c2ccccc2)cs1
inactive: [1] > 100 µM | [2] > 100 µM | [3] > 100 µM | [4] > 100 µM | [5] > 100 µM | [6] > 100 µM | [7] > 100 µM | [9] > 100 µM | [10] > 100 µM | [11] > 100 µM | [12] > 100 µM | [14] > 100 µM | [15] > 100 µM | [16] > 100 µM | [17] > 100 µM | [18] > 100 µM | [19] > 100 µM | [20] > 100 µM

O=C(/C=C/c1ccsc1)c1ccco1
inactive: [1] 1.76 µM | [2] 13.3 µM | [3] 3.52 µM | [4] 14.1 µM | [5] 10.8 µM | [6] 15.4 µM | [7] 14.3 µM | [8] 14.2 µM | [9] 3.1 µM | [10] 11.7 µM | [11] 14.6 µM | [12] 16.4 µM | [13] 14.4 µM | [14] 14.6 µM | [15] 4.71 µM | [16] 5.24 µM | [17] 7.67 µM | [18] 15.5 µM | [20] 11.2 µM

CN(/N=C(\C(=O)O)c1ccccc1)C1=NCCCN1
inactive: [1] > 100 µM | [2] > 100 µM | [3] > 100 µM | [4] > 100 µM | [5] > 100 µM | [6] > 100 µM | [7] > 100 µM | [8] > 100 µM | [9] > 100 µM | [10] > 100 µM | [11] > 100 µM | [12] 73.3 µM | [13] > 100 µM | [14] > 100 µM | [15] > 100 µM | [16] > 100 µM | [17] > 100 µM | [19] > 100 µM

Clc1ccccc1/C=C/c1nsc(/C=C/c2ccccc2Cl)n1
inactive: [1] 33.1 µM | [2] > 100 µM | [3] 31.3 µM | [4] > 100 µM | [5] 50.4 µM | [6] 36.1 µM | [7] 21.4 µM | [9] 37.2 µM | [10] 94 µM | [11] 30.1 µM | [12] 61 µM | [13] 78.5 µM | [14] 23.6 µM | [15] 21.8 µM | [16] 81.7 µM | [17] 34.8 µM | [18] > 100 µM | [19] 73.8 µM | [20] 70.6 µM
